Consider two compounds from patent publication US8283310B2, “Hepatitis C virus inhibitors” (priority 2008, dated 2012).

Assay [1] deals with T1, HCV NS3/4A protease complex (Hepatitis C virus genotype 1a, UniProt P27958, C1454S/C1711G).
T1 construct: DNA encoding the recombinant HCV NS3/4A protease complex (amino acids 1027 to 1711) for these strains; inferred from pET21b vector and Ni-NTA purification; made in house; host or cells: Escherichia coli BL21 (DE3), pET21b
Nature of the assay: FRET peptide assay to monitor HCV NS3/4A proteolytic activity. It is filed as biochemical. The conditions noted are these: recombinant NS3/4A protease complex, RET S1 FRET peptide substrate; strain not given. An excerpt: HCV NS3 protease complexes, derived from the BMS strain, H77 strain or J4L65 strain, were generated, as described below. These purified recombinant proteins were generated for use in a homogeneous assay (see below) to provide an indication of how effective compounds of the present disclosure would be in inhibiting HCV NS3 proteolytic activity.
The H77 and J4L6S strains were used for production of recombinant NS3/4A protease complexes. DNA encoding the recombinant HCV NS3/4A protease complex (amino acids 1027 to 1711) for these strains was manipulated as described by P. Gallinari et al. (see Gallinari P, Paolini C, Brennan D, Nardi C, Steinkuhler C, De Francesco R. Biochemistry. 38(17):5620-32, (1999)). Briefly, a three-lysine solubilizing tail was added at the 3′-end of the NS4A coding region. The cysteine in the P1 position of the NS4A-NS4B cleavage site (amino acid 1711) was changed to a glycine to avoid the proteolytic cleavage of the lysine tag. Furthermore, a cysteine to serine mutation was introduced by PCR at amino acid position 1454 to prevent the autolytic cleavage in the NS3 helicase domain. […]

The test system of assay [2] is HCV genotype 1a replicon (H77) in HUH-7 cells. The assay is described as follows: HCV replicon luciferase reporter assay, genotype 1a. It is filed as cell-based. The conditions noted are these: Hepatitis C virus, Huh-7, 72 h, read-out: 1a/1b EC50 (nM): 1a. The text has this: A stable HCV genotype 1a replicon cell line was generated with a similar genomic map as described above for the 1b replicon cell line. An additional adaptive substitution at position 1496 (proline to leucine) was also introduced (Lemm J A, Liu M, Rose R E, Fridell R, O′Boyle Ii D R, Colonno R, Gao M. Intervirology. 2005 48(2-3):183-91). The sequence of the H77 infectious clone (see above for details) was used to generate the sub-replicon which also contained the selectable marker G418 and the Renilla luciferase gene.
(§1) The HCV replicon luciferase assay was developed to monitor the inhibitory effects of compounds described in the disclosure on HCV viral replication. […] After 3 days incubation at 37° C., cells were analyzed for Renilla Luciferase activity using the EnduRen as substrate (Promega cat 4E6485). […] The plates were incubated for 2 hrs at 37° C. and then read immediately for 30 seconds on the Viewlux Imager (PerkinElmer) using a luminescence program. […] The fluorescence signal from each well was read, with an excitation wavelength at 525/10 nm and an emission wavelength of 598/10 nm, on the Viewlux Imager.
(§2) The percentage inhibition was calculated using the formula below:
(§3) [formula] The values were graphed and analyzed using XLfit to obtain the EC50 value.

The subject of assay [3] is HCV strain 1b replicon in HUH-7 cells. The assay is described as follows: HCV replicon luciferase reporter assay, genotype 1b. The assay is classed as cell-based. Particulars: Hepatitis C virus, Huh-7, 72 h, read-out: 1a/1b EC50 (nM): 1b.
Description: An HCV replicon whole cell system was established as described by Lohmann V, Korner F, Koch J, Herian U, Theilmann L, Bartenschlager R., Science 285(5424):110-3 (1999). This system enabled us to evaluate the effects of our HCV Protease compounds on HCV RNA replication. Briefly, using the HCV strain 1b sequence described in the Lohmann paper (Assession number: AJ238799), an HCV cDNA was synthesized by Operon Technologies, Inc. (Alameda, Calif.), and the full-length replicon was then assembled in plasmid pGem9zf(+) (Promega, Madison, Wis.) using standard molecular biology techniques. […]
as §1, §2, §3

Molecules are shown by their SMILES.

T1 sequence (P27958 1027-1711 C1454S/C1711G, one chain of several): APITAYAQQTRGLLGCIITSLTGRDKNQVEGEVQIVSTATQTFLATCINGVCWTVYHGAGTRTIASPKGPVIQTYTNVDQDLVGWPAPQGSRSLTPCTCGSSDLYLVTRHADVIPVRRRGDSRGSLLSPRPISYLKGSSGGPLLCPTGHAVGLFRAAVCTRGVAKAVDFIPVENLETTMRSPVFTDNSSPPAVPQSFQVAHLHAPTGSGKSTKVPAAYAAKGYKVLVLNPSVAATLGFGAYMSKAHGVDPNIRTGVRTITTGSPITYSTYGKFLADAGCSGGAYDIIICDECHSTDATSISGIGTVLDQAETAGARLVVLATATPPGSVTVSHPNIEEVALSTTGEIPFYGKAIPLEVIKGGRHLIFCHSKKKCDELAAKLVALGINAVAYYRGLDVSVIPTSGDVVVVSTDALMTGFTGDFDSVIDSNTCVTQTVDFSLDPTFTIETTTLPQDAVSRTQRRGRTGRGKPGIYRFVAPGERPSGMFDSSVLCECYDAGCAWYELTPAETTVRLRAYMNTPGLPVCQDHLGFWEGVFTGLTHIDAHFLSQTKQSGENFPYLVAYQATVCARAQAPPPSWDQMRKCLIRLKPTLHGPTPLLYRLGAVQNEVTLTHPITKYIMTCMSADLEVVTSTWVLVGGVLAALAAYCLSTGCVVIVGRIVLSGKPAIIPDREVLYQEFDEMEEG

As to `CC(C)(C)OC(=O)N[C@H](C(=O)N1C[C@]2(c3ccc(-c4ccccc4)cc3)C[C@H]1C(=O)N[C@@]1(C[C@H]1C(F)F)C(=O)NS(=O)(=O)C1(CCCCC/C=C/CS2)CC1)C(C)(C)C` [Compound 1], the IC50 in assay [1] stood at 2 nM. Also, the EC50 came to 49 nM in assay [2] and 21 nM in assay [3].

In the case of `CC(C)(C)OC(=O)N[C@H](C(=O)N1C[C@]2(c3ccc(-c4ccccc4)cc3)C[C@H]1C(=O)N[C@@]1(C[C@H]1C(F)F)C(=O)NS(=O)(=O)C1(CCCCC/C=C\CS2)CC1)C(C)(C)C` [Compound 2], the IC50 in assay [1] worked out at 4 nM. The figures for the EC50 in assay [2] and in assay [3] were 95 nM and 33 nM, respectively.
